For six molecules, solubility and Solubility in water results are on record in patent publication EP3133117A1, “WATER-BASED POLYMER SYSTEM FOR LABELING ADHESIVE APPLICATIONS” (Henkel AG & Co. KGaA, priority 2015, dated 2017).

A short description of data set [1]: Solubility of the organic additives in water. The following applies: for solubility: water, 25 °C, thermodynamic from solid.
Excerpt: For the determination of the solubility of the organic additives described herein, the GC-based method described above in connection with the solubilities of the monomers may be used. […] The method is basically measuring residual amount of CD in a saturated solution after drying.
The conditions of data set [2]: cyclodextrins; values taken from Sabadini et al.; 25°C; cited from earlier work.

In brackets after ≈: the same amount, converted by molar mass. Like-named read-outs stand apart in the source and are kept apart here.

The solubility is the concentration that dissolves in the medium under given conditions. Read a high solubility as much dissolved substance. `CC(=O)OCC(COC(C)=O)OC(C)=O` [1,2,3-propanetriol triacetate]: in data set [1], the solubility came to 72 mg/mL. For the molecule `OCCCCO` [1,4-butandiol], the Solubility in water entry in data set [1] (additives other than cyclodextrins, 25°C) was “miscible”.

With `CCCCCO` [1-pentanol], the solubility in data set [1] is 22.4 mg/mL (≈ 254 mM). The same measure, in the same setting: to `CCCCCCCO` [Heptanol] belongs 1.74 mg/mL (≈ 15 mM). On to `OC[C@H]1O[C@@H]2O[C@H]3[C@H](O)[C@@H](O)[C@@H](O[C@H]4[C@H](O)[C@@H](O)[C@@H](O[C@H]5[C@H](O)[C@@H](O)[C@@H](O[C@H]6[C@H](O)[C@@H](O)[C@@H](O[C@H]7[C@H](O)[C@@H](O)[C@@H](O[C@H]1[C@H](O)[C@H]2O)O[C@@H]7CO)O[C@@H]6CO)O[C@@H]5CO)O[C@@H]4CO)O[C@@H]3CO` [α-cyclodextrin], for which the Solubility in water in data set [2] was 129.5 mg/mL (≈ 133 mM). In the case of `OC[C@H]1O[C@@H]2O[C@H]3[C@H](O)[C@@H](O)[C@@H](O[C@H]4[C@H](O)[C@@H](O)[C@@H](O[C@H]5[C@H](O)[C@@H](O)[C@@H](O[C@H]6[C@H](O)[C@@H](O)[C@@H](O[C@H]7[C@H](O)[C@@H](O)[C@@H](O[C@H]8[C@H](O)[C@@H](O)[C@@H](O[C@H]9[C@H](O)[C@@H](O)[C@@H](O[C@H]1[C@H](O)[C@H]2O)O[C@@H]9CO)O[C@@H]8CO)O[C@@H]7CO)O[C@@H]6CO)O[C@@H]5CO)O[C@@H]4CO)O[C@@H]3CO` [γ-cyclodextrin], the Solubility in water in data set [2] is 249.2 mg/mL (≈ 192 mM).
